Consider 14 compounds from patent publication US20260258048A1, “LACTAM-CONTAINING IMIDAZOPYRIDAZINE IL-17 INHIBITOR COMPOUNDS” (Janssen Pharmaceutica NV, priority 2023, published 2026).

Some results are limits rather than exact numbers.

Experiment [1] concerns the target IL-17A(FLAG-tagged): IL-17RA(His-tagged) (Homo sapiens, UniProt Q16552, K93Q). The experiment in a line: IL-17A(FLAG-tagged): IL-17RA(His-tagged) binding disruption Eu-HTRF assay. The conditions noted are these: class of the average IC50 where tested more than once. The source says:
IL-17A(FLAG-tagged): IL-17RA(His-tagged) binding disruption Eu-HTRF assay An antibody directed against the FLAG tag of IL-17A (SEQ ID NO: 1) is labeled with the HTRF donor chromophore (Europium-cryptate). IL-17A is present as a dimer that is “locked into” this quaternary structure due to the formation of loop-spanning intramolecular disulfide bridges. The construct of IL-17RA used in the assay excludes the […] portion of the receptor and is fused to a C-terminal 10×His tag (SEQ ID NO:2). An antibody directed against the His tag of the IL-17RA chimera is labeled with the HTRF acceptor chromophore (“D2”). The fluorescence-resonance energy transfer (FRET) depends on the vicinity of the donor chromophore to the acceptor, and interruption of the binding between the IL-17A and IL-17RA causes the reduction/loss of FRET. Therefore, this assay allows to evaluate the compound effect on the binding IL-17A and IL-17RA by monitoring the fluorescence intensity of donor vs acceptor. The assay is run as described below.
40 nl of 2-fold serial diluted compound solution for total 22 dilution points is added into each well of a 1536-well, white, low-volume, non-binding plate (Greiner #782904), then 2 μl of FLAG tagged IL-17A at 2× final concentration (1 μM) in solution of PBS+0.01% Triton-X100 is added to each well. The assay plate is briefly centrifuged then incubated for 1 h at rt. A mixed solution is prepared containing 2×5 nM 10HIS×IL-17RA, 2×2.5 nM Eu-anti-FLAG (CISBIO), 2×5 nM D2-anti-HIS (CISBIO) in PBS+0.01% Triton-X100+200 mM Potassium Fluoride (Sigma 60238) and 2 μl of mix is added to each well of the assay plate. The plate is briefly centrifuged then incubated for 2 h at rt. The HTRF intensities at the wavelength of donor (615 nm) and acceptor (665 nm) are measured using BMG Pherastar. The ratio between intensities at two wavelengths is calculated and plotted against the compound concentration and the data is fitted to a one-site competition model to yield IC50 of the compound.

Experiment [2] has as its system IL-17A-induced G-CSF production in human normal keratinocyte (NHK). The experiment in a line: NHK assay: IL-17A-induced G-CSF production in normal human keratinocytes. The format is cell-based. The conditions noted are these: Homo sapiens, Keratinocyte, 24 h, IL-17A 5 ng/mL, class of the average IC50 where tested more than once. The method, then: IL-17A acts directly on keratinocytes through binding to dimeric receptor IL-17RA/RC and drives the production of a number of inflammatory mediators known to be elevated in psoriasis lesional tissue. IL-17A small molecule inhibitors that block the IL-17A to interact with IL-17R would inhibit the IL-17A signaling in its targeted cells such as keratinocytes. The compound functional activity is evaluated for its impact on IL-17A-induced G-CSF production in human normal keratinocyte (NHK).
Adult normal human keratinocytes are cultured in keratinocyte growth medium (Lonza) in a flask till reaching ~90% confluence, then cells are transferred to a 384-well plate at density of 3000-4000 cell/well. Recombinant human IL-17A (Gibco PHC9174) is pre-incubated with titrated compound or DMSO for 1 h at rt then added to the cell culture plate. The final concentration of IL-17A is 5 ng/mL and DMSO is 0.2%, in the culture containing 5% FBS. Cells are cultured/treated for 24 h at 37° C. Supernatants are collected and G-CSF production is measured through HTRF technology using Human G-CSF Kit (CisBio). G-CSF concentration was extrapolated from the standard curve and IC50 is determined using GraphPad Prism. Cell viability is also evaluated using CellTiter-Glo kit (Promega) and effect of compound on cell viability is compared to DMSO control.

UniProt Q16552, sequence (Q16552 with tags, fused parts or gaps K93Q): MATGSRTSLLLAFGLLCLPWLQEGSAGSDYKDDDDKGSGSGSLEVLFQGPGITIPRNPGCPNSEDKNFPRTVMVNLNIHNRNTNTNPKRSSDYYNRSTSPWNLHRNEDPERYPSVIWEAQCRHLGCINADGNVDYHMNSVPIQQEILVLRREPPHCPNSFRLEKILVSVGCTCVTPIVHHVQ

Usually IC50 stands for the concentration at which inhibition is half-maximal. Low readings indicate greater potency in that assay, high ones weaker potency in that assay. Consider `O=C(N[C@H](c1cn2ncc(C[C@@H]3C(=O)NC[C@@H]3C(F)(F)F)cc2n1)C1CCC(F)(F)CC1)c1nonc1C1CC1` (relative stereo) [Example 49, 4-Cyclopropyl-N—((S)-(4,4-difluorocyclohexyl)(7-(((3S*,4R*)-2-oxo-4-(trifluoromethyl)pyrrolidin-3-yl)methyl)imidazo[1,2-b]pyridazin-2-yl)methyl)-1,2,5-oxadiazole-3-carboxamide], for which the IC50 was 400 to 4000 nM in experiment [1] and greater than 4000 nM in experiment [2].
For `O=C(N[C@H](c1cn2ncc([C@H](O)[C@H]3C[C@H](C(F)(F)F)NC3=O)cc2n1)C1CCC(F)(F)CC1)c1nonc1C1CC1` (relative stereo) [Example 63, 4-Cyclopropyl-N—((S)-(4,4-difluorocyclohexyl)(7-((R*)-hydroxy((3R*,5R*)-2-oxo-5-(trifluoromethyl)pyrrolidin-3-yl)methyl)imidazo[1,2-b]pyridazin-2-yl)methyl)-1,2,5-oxadiazole-3-carboxamide] the same measures were 400 to 4000 nM and greater than 4000 nM.
On to `O=C(N[C@H](c1cn2ncc([C@H](O)[C@@H]3C[C@H](C(F)(F)F)NC3=O)cc2n1)C1CCC(F)(F)CC1)c1nonc1C1CC1` (relative stereo) [Example 64, 4-Cyclopropyl-N—((S)-(4,4-difluorocyclohexyl)(7-((R*)-hydroxy((3S*,5R*)-2-oxo-5-(trifluoromethyl)pyrrolidin-3-yl)methyl)imidazo[1,2-b]pyridazin-2-yl)methyl)-1,2,5-oxadiazole-3-carboxamide], for which the IC50 is 400 to 4000 nM in experiment [1] and less than 400 nM in experiment [2].
On the same counts, the results for `CC(C)(CC[C@H](NC(=O)c1nonc1C1CC1)c1cn2ncc([C@H](O)[C@H]3C[C@@H](C(F)(F)F)NC3=O)cc2n1)C(F)(F)F` (relative stereo) [Example 65, 4-Cyclopropyl-N—((S)-5,5,5-trifluoro-1-(7-((R*)-hydroxy((3R*,5S)-2-oxo-5-(trifluoromethyl)pyrrolidin-3-yl)methyl)imidazo[1,2-b]pyridazin-2-yl)-4,4-dimethylpentyl)-1,2,5-oxadiazole-3-carboxamide] are less than 400 nM and less than 400 nM.
For the compound `O=C(N[C@H](c1cn2ncc(C[C@@H]3C[C@H](C(F)(F)F)NC3=O)cc2n1)C1CCC(F)(F)CC1)c1nonc1C1CC1` (relative stereo) [Example 68, 4-Cyclopropyl-N—((S)-(4,4-difluorocyclohexyl)(7-(((3R*,5R*)-2-oxo-5-(trifluoromethyl)pyrrolidin-3-yl)methyl)imidazo[1,2-b]pyridazin-2-yl)methyl)-1,2,5-oxadiazole-3-carboxamide], the IC50 in experiment [1] and in experiment [2] was 400 to 4000 nM each time.
As to `O=C(N[C@H](c1cn2ncc(C[C@H]3C[C@H](C(F)(F)F)NC3=O)cc2n1)C1CCC(F)(F)CC1)c1nonc1C1CC1` (relative stereo) [Example 69, 4-Cyclopropyl-N—((S)-(4,4-difluorocyclohexyl)(7-(((3S*,5R*)-2-oxo-5-(trifluoromethyl)pyrrolidin-3-yl)methyl)imidazo[1,2-b]pyridazin-2-yl)methyl)-1,2,5-oxadiazole-3-carboxamide], the IC50 in experiment [1] and in experiment [2] was 400 to 4000 nM in each case.
With `O=C(N[C@H](c1cn2ncc(C[C@@H]3C[C@@H](C(F)(F)F)NC3=O)cc2n1)C1CCC(F)(F)CC1)c1nonc1C1CC1` (relative stereo) [Example 70, 4-Cyclopropyl-N—((S)-(4,4-difluorocyclohexyl)(7-(((3R*,5S*)-2-oxo-5-(trifluoromethyl)pyrrolidin-3-yl)methyl)imidazo[1,2-b]pyridazin-2-yl)methyl)-1,2,5-oxadiazole-3-carboxamide], the IC50 in experiment [1] and in experiment [2] was less than 400 nM each time.
Consider `O=C(N[C@H](c1cn2ncc(C[C@H]3C[C@@H](C(F)(F)F)NC3=O)cc2n1)C1CCC(F)(F)CC1)c1nonc1C1CC1` (relative stereo) [Example 71, 4-Cyclopropyl-N—((S)-(4,4-difluorocyclohexyl)(7-(((3S*,5S*)-2-oxo-5-(trifluoromethyl)pyrrolidin-3-yl)methyl)imidazo[1,2-b]pyridazin-2-yl)methyl)-1,2,5-oxadiazole-3-carboxamide], for which the IC50 in experiment [1] is 400 to 4000 nM; in experiment [2], greater than 4000 nM.
For `O=C(N[C@H](c1cn2ncc([C@@H](O)[C@@H]3C[C@@H](C(F)(F)F)NC3=O)cc2n1)C1CCC(F)(F)CC1)c1nonc1C1CC1` (relative stereo) [Example 72, 4-Cyclopropyl-N—((S)-(4,4-difluorocyclohexyl(7-((S*)-hydroxy((3S*,5S*)-2-oxo-5-(trifluoromethyl)pyrrolidin-3-yl)methyl)imidazo[1,2-b]pyridazin-2-yl)methyl)-1,2,5-oxadiazole-3-carboxamide] the same measures were 400 to 4000 nM and 400 to 4000 nM.
For `O=C(N[C@H](c1cn2ncc([C@@H](O)[C@H]3C[C@@H](C(F)(F)F)NC3=O)cc2n1)C1CCC(F)(F)CC1)c1nonc1C1CC1` (relative stereo) [Example 73] the same measures were 400 to 4000 nM and 400 to 4000 nM.
As to `O=C(N[C@H](c1cn2ncc([C@H](O)[C@@H]3C[C@@H](C(F)(F)F)NC3=O)cc2n1)C1CCC(F)(F)CC1)c1nonc1C1CC1` (relative stereo) [Example 75, 4-Cyclopropyl-N—((S)-(4,4-difluorocyclohexyl)(7-((R*)-hydroxy((3S*,5S*)-2-oxo-5-(trifluoromethyl)pyrrolidin-3-yl)methyl)imidazo[1,2-b]pyridazin-2-yl)methyl)-1,2,5-oxadiazole-3-carboxamide], the IC50 in experiment [1] and in experiment [2] was less than 400 nM throughout.
Regarding `O=C(N[C@H](c1cn2ncc([C@H](O)[C@H]3C[C@@H](C(F)(F)F)NC3=O)cc2n1)C1CCC(F)(F)CC1)c1nonc1C1CC1` (relative stereo) [Example 77, 4-Cyclopropyl-N—((S)-(4,4-difluorocyclohexyl)(7-((R*)-hydroxy((3R*,5S*)-2-oxo-5-(trifluoromethyl)pyrrolidin-3-yl)methyl)imidazo[1,2-b]pyridazin-2-yl)methyl)-1,2,5-oxadiazole-3-carboxamide], the results for the IC50 in experiment [1] and in experiment [2] were greater than 4000 nM and 400 to 4000 nM, respectively.
`C[C@@H](c1cnn2cc([C@@H](NC(=O)c3nonc3C3CC3)C3CCC(F)(F)CC3)nc2c1)[C@H]1C[C@@H](C(F)(F)F)NC1=O` (relative stereo) [Example 78, 4-Cyclopropyl-N—((S)-(4,4-difluorocyclohexyl)(7-((R*)-1-((3R*,5S)-2-oxo-5-(trifluoromethyl)pyrrolidin-3-yl)ethyl)imidazo[1,2-b]pyridazin-2-yl)methyl)-1,2,5-oxadiazole-3-carboxamide]: the IC50 in experiment [1] and in experiment [2] was greater than 4000 nM in each case.
Regarding `C[C@H](c1cnn2cc([C@@H](NC(=O)c3nonc3C3CC3)C3CCC(F)(F)CC3)nc2c1)[C@H]1C[C@@H](C(F)(F)F)NC1=O` (relative stereo) [Example 79, 4-Cyclopropyl-N—((S)-(4,4-difluorocyclohexyl)(7-((S*)—1-((3R*,5S)-2-oxo-5-(trifluoromethyl)pyrrolidin-3-yl)ethyl)imidazo[1,2-b]pyridazin-2-yl)methyl)-1,2,5-oxadiazole-3-carboxamide], the IC50 in experiment [1] and in experiment [2] was less than 400 nM in each case.
